This assay has as its system Human Umbilical Vein Endothelial cells (VEGF-stimulated HUVEC proliferation). Kind of assay: HUVEC Proliferation Assay (VEGF-stimulated). The assay is classed as cell-based. As to conditions: VEGF 50 ng/mL, 72 h incubation, CyQuant readout, read-out: inhibited VEGF-stimulated HUVEC proliferation at a level below (IC50). The procedure: Human Umbilical Vein Endothelial cells are purchased from Clonetics, Inc., as cryopreserved cells harvested from a pool of donors. These cells, at passage 1, are thawed and expanded in EBM-2 complete medium, until passage 2 or 3. The cells are trypsinized, washed in DMEM+10% FBS+antibiotics, and spun at 1000 rpm for 10 min. Prior to centrifugation of the cells, a small amount is collected for a cell count. After centrifugation, the medium is discarded, and the cells are resuspended in the appropriate volume of DMEM+10% FBS+antibiotics to achieve a concentration of 3×10^5 cells/mL. Another cell count is performed to confirm the cell concentration. The cells are diluted to 3×10^4 cells/mL in DMEM+10% FBS+antibiotics, and 100 μL of cells are added to a 96-well plate. The cells are incubated at 37° C. for 22 h.
Prior to the completion of the incubation period, compound dilutions are prepared. Five-point, five-fold serial dilutions are prepared in DMSO, at concentrations 400-fold greater than the final concentrations desired. 2.5 μL of each compound dilution are diluted further in a total of 1 mL DMEM+10% FBS+antibiotics (400× dilution). Medium containing 0.25% DMSO is also prepared for the 0 μM compound sample. At the 22-hour timepoint, the medium is removed from the cells, and 100 μL of each compound dilution is added. The cells are incubated at 37° C. for 2-3 h.
During the compound pre-incubation period, the growth factors are diluted to the appropriate concentrations. Solutions of DMEM+10% FBS+antibiotics, containing either VEGF or bFGF at the following concentrations: 50, 10, 2, 0.4, 0.08, and 0 ng/mL are prepared. For the compound-treated cells, solutions of VEGF at 550 ng/mL or bFGF at 220 ng/mL for 50 ng/mL or 20 ng/mL final concentrations, respectively, are prepared since 10 μL of each will be added to the cells (110 μL final volume). At the appropriate time after adding the compounds, the growth factors are added. VEGF is added to one set of plates, while bFGF is added to another set of plates. For the growth factor control curves, the media on wells B4-G6 of plates 1 and 2 are replaced with media containing VEGF or bFGF at the varying concentrations (50-0 ng/mL). The cells are incubated at 37° C. for an additional 72 h.
At the completion of the 72 h incubation period, the medium is removed, and the cells are washed twice with PBS. After the second wash with PBS, the plates are tapped gently to remove excess PBS, and the cells are placed at −70° C. for at least 30 min. The cells are thawed and analyzed using the CyQuant fluorescent dye (Molecular Probes C-7026), following the manufacturer's recommendations. The plates are read on a Victor/Wallac 1420 workstation at 485 nm/530 nm (excitation/emission). Raw data are collected and analyzed using a 4-parameter fit equation in XLFit. IC50 values are then determined.

pIC50: −log10 of the molar value.

With `O=C(Nc1ccc(C(F)(F)C(F)(F)F)c(CN2CCNCC2)c1)c1cccnc1Nc1ccc2cn[nH]c2c1` [Example 111, 2-(1H-Indazol-6-ylamino)-N-(4-pentafluoroethyl-3-piperazin-1-ylmethyl-phenyl)-nicotinamide], the pIC50 was more than 7.30.

In the case of `O=C(Nc1ccc(C(F)(F)C(F)(F)F)c(OC[C@@H]2CCCN2)c1)c1cccnc1Nc1ccc2cn[nH]c2c1` [Example 83, 2-(1H-Indazol-6-ylamino)-N-[4-pentafluoroethyl-3-(2S-pyrrolidin-2-ylmethoxy)-phenyl]-nicotinamide], the pIC50 was more than 7.30.

As to `NS(=O)(=O)c1cc(NC(=O)c2cccnc2Nc2ccc3cn[nH]c3c2)ccc1Cl` [Example 13, N-3-aminosulfonyl(4-chloro-phenyl)[2-(1H-indazol-6-ylamino)(3-pyridyl)]carboxamide], the pIC50 is more than 7.30.

As to `CC(C)(C)c1ccc(NC(=O)c2cccnc2Nc2ccc3cn[nH]c3c2)cc1OCC1CCNCC1` [Example 93, N-[4-tert-Butyl-3-(piperidin-4-ylmethoxy)-phenyl]-2-(1H-indazol-6-ylamino)-nicotinamide], the pIC50 is more than 7.30.

With `CS(=O)(=O)c1ccc(NC(=O)c2cccnc2Nc2ccc3cn[nH]c3c2)cc1` [Example 46, [2-(1H-Indazol-6-ylamino)(3-pyridyl)]-N-[4-(methylsulfonyl)phenyl]carboxamide], the pIC50 is more than 7.30.

As for `O=C(Nc1ccc(C(F)(F)C(F)(F)F)c(OC[C@H](O)CN2CCCC2)c1)c1cccnc1Nc1ccc2cn[nH]c2c1` [Example 80, N-[3-(2-Hydroxy-3-pyrrolidin-1-yl-propoxy)-4-pentafluoroethyl-phenyl]-2-(1H-indazol-6-ylamino)-nicotinamide], the pIC50 is more than 7.30.

For `O=C(Nc1ccc(C(F)(F)C(F)(F)F)c(OC[C@@H](O)CN2CCCC2)c1)c1cccnc1Nc1ccc2cn[nH]c2c1` [Example 82, N-[3-(2-Hydroxy-3-pyrrolidin-1-yl-propoxy)-4-pentafluoroethyl-phenyl]-2-(1H-indazol-6-ylamino)-nicotinamide], the pIC50 was more than 7.30.

Regarding `CC(C)(C)OC(=O)N1CCC[C@H]1COc1cc(NC(=O)c2cccnc2Nc2ccc3cn[nH]c3c2)ccc1C(C)(C)C` [Example 95, 1-Boc-2-(2-tert-Butyl-5-{[2-(1H-indazol-6-ylamino)-pyridine-3-carbonyl]-amino}-phenoxymethyl)-pyrrolidine], the pIC50 is more than 7.30.

Turning to `CC1(C)CC(=O)Nc2cc(NC(=O)c3cccnc3Nc3ccc4cn[nH]c4c3)ccc21` [Example 575, N-(4,4-Dimethyl-2-oxo-1,2,3,4-tetrahydro-quinolin-7-yl)-2-(1H-indazol-6-ylamino)-nicotinamide], the pIC50 was more than 7.30.

Regarding `CS(=O)(=O)Nc1cc(NC(=O)c2cccnc2Nc2ccc3cn[nH]c3c2)cc(C(F)(F)F)c1` [Example 586, 2-(1H-Indazol-6-ylamino)-N-(3-((methylsulfonyl)amino)-5-(trifluoromethyl)phenyl)-3-pyridinecarboxamide], the pIC50 was more than 7.30.

As to `O=C(Nc1ccc2c(c1)CN(CCN1CCOCC1)CC2)c1cccnc1Nc1ccc2cn[nH]c2c1` [Example 118, 2-(1H-Indazol-6-ylamino)-N-[2-(2-morpholin-4-yl-ethyl)-1,2,3,4-tetrahydro-isoquinolin-7-yl]-nicotinamide], the pIC50 was more than 7.30.

For `CCC(C)c1ccc(NC(=O)c2cccnc2Nc2ccc3cn[nH]c3c2)cc1` (stereo not shown) [Example 7, [2-(1H-Indazol-6-ylamino)(3-pyridyl)]-N-[4-(methylpropyl)phenyl]carboxamide], the pIC50 is more than 7.30.

In the case of `CN(C)CCOc1n[nH]c2cc(Nc3ncccc3C(=O)Nc3ccc(C(C)(C)C)cc3)ccc12` [Example 40, [2-({3-[2-(Dimethylamino)ethoxy](1H-indazol-6-yl)}amino)(3-pyridyl)]-N-[4-(tert-butyl)phenyl]carboxamide], the pIC50 is more than 7.30.
